Test results published in patent publication US20110256291A1, “CYCLIC LIPOPEPTIDES FOR USE AS TASTE MODULATORS” (NUTRINOVA NUTRITION SPECIAL TIES & FOOD INGREDIENT GMBH, priority 2008, published 2011).

Target: T1, human T1R2/T1R3 taste receptor (Homo sapiens, UniProt Q7RTX0+Q8TE23)
T1 construct: the cDNA for the receptors ht1R2 and ht1R3 and the cDNA for the blasticidin S deaminase gene have been cloned; expressed in transfected cells; host or cells: HEK293 cell line stably expressing mouse G-alpha-15, stably transfected with the tricistronic vector pTrix-Eb-R2R3 and selected with blasticidin
T1 sequence (Q8TE23 20-839): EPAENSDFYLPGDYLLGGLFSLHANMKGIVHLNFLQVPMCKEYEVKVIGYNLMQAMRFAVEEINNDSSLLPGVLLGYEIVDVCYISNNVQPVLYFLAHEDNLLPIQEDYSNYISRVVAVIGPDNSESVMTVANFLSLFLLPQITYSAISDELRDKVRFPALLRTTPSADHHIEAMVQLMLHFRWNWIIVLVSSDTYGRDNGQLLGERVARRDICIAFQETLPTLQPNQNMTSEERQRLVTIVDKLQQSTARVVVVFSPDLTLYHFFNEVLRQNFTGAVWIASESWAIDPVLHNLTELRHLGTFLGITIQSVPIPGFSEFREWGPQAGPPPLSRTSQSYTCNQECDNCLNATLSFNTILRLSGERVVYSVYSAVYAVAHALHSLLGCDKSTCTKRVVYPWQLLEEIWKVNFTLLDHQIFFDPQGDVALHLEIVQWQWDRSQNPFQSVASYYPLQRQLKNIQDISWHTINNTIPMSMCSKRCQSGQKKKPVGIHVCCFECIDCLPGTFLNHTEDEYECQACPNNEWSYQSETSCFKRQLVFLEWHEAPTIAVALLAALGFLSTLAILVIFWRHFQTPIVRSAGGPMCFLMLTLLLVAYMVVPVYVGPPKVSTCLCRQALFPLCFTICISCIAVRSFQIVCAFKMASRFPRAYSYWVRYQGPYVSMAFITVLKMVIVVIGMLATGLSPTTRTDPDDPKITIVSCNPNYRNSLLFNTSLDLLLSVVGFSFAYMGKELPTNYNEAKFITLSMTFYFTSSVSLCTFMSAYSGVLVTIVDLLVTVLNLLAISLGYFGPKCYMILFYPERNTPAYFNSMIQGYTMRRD
T1 sequence (Q7RTX0 21-852): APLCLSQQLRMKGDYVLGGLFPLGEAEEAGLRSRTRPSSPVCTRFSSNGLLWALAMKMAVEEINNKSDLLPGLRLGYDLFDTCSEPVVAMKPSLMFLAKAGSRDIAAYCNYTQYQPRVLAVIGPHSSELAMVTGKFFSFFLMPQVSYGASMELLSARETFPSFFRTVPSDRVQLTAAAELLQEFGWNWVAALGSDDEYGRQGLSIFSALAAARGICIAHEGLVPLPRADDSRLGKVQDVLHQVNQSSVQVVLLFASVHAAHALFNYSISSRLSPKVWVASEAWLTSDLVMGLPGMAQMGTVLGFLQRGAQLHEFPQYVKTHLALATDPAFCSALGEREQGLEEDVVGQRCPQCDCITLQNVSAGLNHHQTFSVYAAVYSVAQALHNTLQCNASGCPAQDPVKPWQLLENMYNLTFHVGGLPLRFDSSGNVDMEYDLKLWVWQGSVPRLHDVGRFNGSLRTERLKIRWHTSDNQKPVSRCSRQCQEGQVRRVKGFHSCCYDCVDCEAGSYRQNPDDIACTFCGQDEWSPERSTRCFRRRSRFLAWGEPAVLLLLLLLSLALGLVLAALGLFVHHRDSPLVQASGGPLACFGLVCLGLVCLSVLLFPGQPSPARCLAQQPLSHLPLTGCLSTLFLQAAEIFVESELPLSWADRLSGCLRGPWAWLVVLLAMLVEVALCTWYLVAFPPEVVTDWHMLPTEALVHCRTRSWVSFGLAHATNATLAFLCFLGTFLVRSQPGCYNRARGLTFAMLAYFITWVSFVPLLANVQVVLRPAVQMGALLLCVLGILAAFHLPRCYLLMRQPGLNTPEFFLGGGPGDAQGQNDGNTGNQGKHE
Test: calcium dependent cell based assay (Fluo-4 AM) in HEK293 cells stably expressing G-alpha-15, human T1R2 and human T1R3
Details: 30 mM fructose (5.4 g/l), pre-examinations
Experimental: Fluo-4 AM assay with stable HEK293 cells—Stable cells are maintained in DMEM high-glucose medium (Invitrogen) supplemented with 10% fetal bovine serum (Biochrom) and 4 mM L-glutamine (Invitrogen). Cells for calcium imaging are maintained in DMEM low-glucose medium supplemented with 10% FBS and 1× Glutamax-1 (Invitrogen) for 48 hours before seeding. These stable cells are trypsinised after 48 hours (either with Trypsin-EDTA, Accutase or TrypLE) and seeded onto poly-D-lysine coated 96-well assay plates (Corning) at a density of 45,000 cells/well in DMEM low-glucose medium supplemented with 10% FBS and 1× Glutamax-1.
After 24 hours, the cells were loaded in 100 μl medium with additional 100 μl of 4 μM Fluo-4 (calcium sensing dye, 2 μM end concentration; Molecular Probes) in Krebs-HEPES (KH)-buffer for 1 hour. The loading reagent is then replaced by 200 μl KH-buffer per well. […]
The dye-loaded stable cells in plates were placed into a fluorescence microtiter plate reader to monitor fluorescence (excitation 488 nm, emission 520 nm) change after the addition of 50 μl KH-buffer supplemented with 5× tastants. […]
Calcium mobilization was quantified as the change of peak fluorescence (ΔF) over the baseline level (F0). Data were expressed as the mean S.E. of the (ΔF/F0) value of replicated independent samples. The analysis was done with the software of the microtiter plate reader. […]

O=C(CO)[C@@H](O)[C@H](O)[C@H](O)CO [fructose]
activation of the sweet taste receptors: barely activating
